Results reported in patent EP4335840A1, “NEW CONTRAST AGENTS FOR USE IN DIAGNOSTIC IMAGING” (priority 2022, dated 2024).
Read-outs that look alike come from different tables or passages of the source.

Legend:
[1] = Complex stability (transmetallation with Zn2+, proton relaxometry); format: physicochemical; conditions: 72 hours, 2.5 mM Zn2+, 26 mM phosphate buffer, 37°C, pH 7.4; 1.41 T
Protocol: The used method is described elsewhere (Laurent S et al., Stability of MRI paramagnetic contrast media: a proton relaxometric protocol for transmetallation assessment. Invest Radiol. 2001 Feb;36(2):115-22). In brief: A solution containing 2.5 mmol/L of test compound and 2.5 mmol/L ZnCl2 in 26 mM phosphate buffer (KH2PO4 Merck; 1.09439.1000, #HC748513, pH 7,00), was incubated at 37°C over a period of at least 3 days. If test compounds are instable under these conditions, transmetallation during this test would lead to the formation of the Zn^2+ complex of the test item, while Gd^3+ is released and precipitated as highly insoluble GdPO4.
After 3d of incubation T1 relaxation time was observed. […] Table 2: Transmetallation stability [%] of paramagnetic contrast agents over 72 hours (2.5 mM Zn2+, 26 mM phosphate buffer, 37°C, pH 7.4).

[2] = 1.5 T, 37°C, from Rohrer et al., cited from earlier work; for r1 bovine plasma: bovine plasma instead of human plasma
[3] = Water solubility in aqueous buffer; format: physicochemical
Protocol: The exploratory water solubility of the compounds is determined at room temperature (20°C) in 0.5 mL buffer solution (10 mM Tris-HCI, pH 7.4) in the microcentrifuge tubes (Eppendorf, 2.0 mL safe-lock caps). The solid compounds were added stepwise to the buffer solution. More substance is added once all the suspended material is dissolved until an equilibrium between undissolved and dissolved substance is reached. The suspension was mixed using a shaker (Heidolph Reax 2000) and treated 5 min in an ultrasound bath (Bandelin, Sonorex Super RK255H). The Gadolinium concentration of the test substance in the clear solution is measured by ICP-MS. Table 1: Solubilities of compounds in aqueous buffer at 20°C (pH 7.4).

[4] = system: freshly isolated rat hepatocytes; assay: Uptake into freshly isolated rat hepatocytes; conditions: rat hepatocyte uptake with OATP1B1/1B3 inhibitor Rifampicine, test item and inhibitor each 100 µM
Protocol: The rat hepatocytes were incubated (2.5 ·10^5 cells/well) for 2.5 to 4h in collagen coated 24-well plates (Fa. Beckton Dickinson Biocoat, cell environments, Collagen I Cellware) in Williams E-medium (Fa. Sigma W1878) in an incubator (37°C, 5% CO2 and 95% oxygen). After incubation the adherent hepatocytes were washed once with 37°C Hepes carbonate transport buffer (500 µL/well). The test items and RC1 were prepared from stock solutions (180 to 500 mM concentration) in Hepes carbonate transport buffer at pH 7.4 to reach a final concentration of 100 µmοl Gd/L. The specific uptake of the test item or RC1 into rat hepatocytes via OATP1 B1 and OATP1 B3 was challenged using a known OATP1B1/1B3 inhibitor (Rifampicine, Fa. Sigma R3501, test item and inhibitor 1:1 each 100 µM final concentration). The prepared rat hepatocyte plates were incubated with test solutions (500 µL/well) at 37°C for 10 min using a thermoshaker (Fa. Grant Bio, PHMP). Triplicates were performed for each test item. After incubating the cells were washed once with cold PBS buffer (Fa. Gibco, Dulbeccos PBS (+)). After washing the intact hepatocytes were lysed by addition of 500 µL cold 0.01 % Triton-X 100 in Millipore water for 1h. […] After 1h 500 µL of 10 nM Terbium ICP-MS standard was added in 2% nitric acid and 0.01% Triton 100 before the Gadolinium concentrations in the lysate were measured using ICP-MS (Agilent 8900, singleQuad, integr. Time 0.3 s, no gas, 5 replicates, Gd m/z 157, Tb m/z 159). As a reference standard RC1 is used in the same well plate. The hepatocyte uptake of the test compound is calculated relative to RC1 (resulting in the unit % of RC1).

[5] = biological target: T1, OATP1B1 (Homo sapiens, UniProt Q9Y6L6); assay: Uptake into stable transfected OATP1B1 HEK 293 cells; format: cell-based
T1 sequence (Q9Y6L6 1-691): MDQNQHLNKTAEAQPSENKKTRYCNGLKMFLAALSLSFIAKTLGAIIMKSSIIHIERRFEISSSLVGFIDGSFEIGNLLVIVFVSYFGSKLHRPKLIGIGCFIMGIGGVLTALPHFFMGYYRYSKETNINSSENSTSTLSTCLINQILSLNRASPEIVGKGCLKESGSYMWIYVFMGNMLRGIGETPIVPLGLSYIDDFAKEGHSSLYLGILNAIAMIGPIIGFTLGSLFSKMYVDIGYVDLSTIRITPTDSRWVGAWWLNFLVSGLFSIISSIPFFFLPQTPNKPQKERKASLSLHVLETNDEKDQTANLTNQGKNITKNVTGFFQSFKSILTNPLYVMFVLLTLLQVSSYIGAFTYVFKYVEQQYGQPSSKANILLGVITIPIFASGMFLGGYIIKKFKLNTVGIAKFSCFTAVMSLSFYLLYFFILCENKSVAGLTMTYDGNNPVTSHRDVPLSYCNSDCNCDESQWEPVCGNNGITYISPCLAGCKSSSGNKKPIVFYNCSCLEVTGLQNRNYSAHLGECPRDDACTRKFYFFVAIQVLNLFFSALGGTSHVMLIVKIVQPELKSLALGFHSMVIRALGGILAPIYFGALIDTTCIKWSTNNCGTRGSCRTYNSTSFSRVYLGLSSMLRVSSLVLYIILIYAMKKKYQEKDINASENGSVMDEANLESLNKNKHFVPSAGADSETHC

[6] = biological target: T2, OATP1B3 (Homo sapiens, UniProt Q9NPD5); assay: Uptake into stable transfected OATP1B3 HEK 293 cells; format: cell-based
T2 sequence (Q9NPD5 1-702): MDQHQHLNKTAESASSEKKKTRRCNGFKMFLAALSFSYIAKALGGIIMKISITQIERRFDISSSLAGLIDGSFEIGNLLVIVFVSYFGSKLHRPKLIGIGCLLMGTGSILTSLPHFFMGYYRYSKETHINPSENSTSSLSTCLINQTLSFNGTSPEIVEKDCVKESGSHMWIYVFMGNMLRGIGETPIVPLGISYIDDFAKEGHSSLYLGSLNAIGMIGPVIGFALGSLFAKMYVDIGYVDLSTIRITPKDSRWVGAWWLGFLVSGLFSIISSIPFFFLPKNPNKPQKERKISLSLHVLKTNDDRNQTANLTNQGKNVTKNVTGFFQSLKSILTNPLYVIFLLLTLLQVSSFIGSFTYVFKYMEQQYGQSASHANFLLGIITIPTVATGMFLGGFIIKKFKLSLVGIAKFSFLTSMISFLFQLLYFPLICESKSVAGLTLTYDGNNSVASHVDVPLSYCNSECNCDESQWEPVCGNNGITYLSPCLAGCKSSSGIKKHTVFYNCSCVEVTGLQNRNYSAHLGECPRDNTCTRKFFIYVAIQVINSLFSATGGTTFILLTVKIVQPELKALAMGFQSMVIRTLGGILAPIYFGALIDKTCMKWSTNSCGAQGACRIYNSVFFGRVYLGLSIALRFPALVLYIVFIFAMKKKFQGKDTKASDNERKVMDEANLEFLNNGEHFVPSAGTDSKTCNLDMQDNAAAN

[7] = Relaxivity measurements at 1.41 T in water and human plasma; format: physicochemical; conditions: 37°C, normalized to Gd
Protocol: Relaxivity measurements at 1.41 T were performed using a MiniSpec mq60 spectrometer (Bruker Analytik, Karlsruhe, Germany) operating at a resonance frequency of 60 MHz and a temperature of 37°C. The T1 relaxation times were determined using the standard inversion recovery (IR) method with a fixed relaxation delay of at least 5 × T1. The variable inversion time (TI) was calculated automatically by the standard software of the MiniSpec mq60 (8 steps). The T2 measurements were performed by using a Carr-Purcell-Meiboom-Gill (CPMG) pulse sequence, applying a relaxation delay of at least 5 × T1.
Each relaxivity measurement was performed using three different Gd concentrations (3 concentrations between 0.05 and 2 mM). The T1 and T2 relaxation times of the example compounds 1 to 10 were measured in different media for example in water and human plasma. Human plasma preparation: For each experiment fresh blood was taken from a volunteer using 10 mL citrate-tubes (Sarstedt S-Monovette 02.1067.001, 10 mL, Citrate). The 10 mL citrate-tubes were carefully inverted 10 times to mix blood and anticoagulant and centrifuged for 15min at 1811 g at RT (Eppendorf, Centrifuge 5810R).
The relaxivities ri (where i=1, 2) were calculated based on the measured relaxation rates Ri in water and plasma: ri = (Ri−Ri(0))/CGd [formula] where Ri(0) represent the relaxation rate of the respective solvent and CGd the concentration of the compound normalized to the Gadolinium. The Gadolinium concentrations of the investigated solutions were verified by Inductively Coupled Plasma Mass Spectrometry (ICP-MS Agilent 7500a, Waldbronn, Germany). Table 3: Relaxivities of investigated compounds in water and human plasma at 1.41 T and relaxivities of Reference compounds 1-3 (RC1-RC3) at 1.5 T in water and bovine plasma. All values are measured at 37°C and normalized to Gd and given in L mmol-1 s-1.

[8] = No-observed-adverse-effect level (NOAEL), intravenous bolus; conditions: mice, intravenous bolus via tail vein, dose levels up to 2.5 mmol Gd/kg bw
[9] = in vivo; cited from earlier work
[10] = aqueous buffer 10 mM Tris-HCl, pH 7.4, 20°C, Gd by ICP-MS
[11] = OATP1B1-HEK 293 cell uptake with Rifampicine
[12] = OATP1B3-HEK 293 cell uptake with Rifampicine

SMILES | Stability (transmetallation stability, T1 relaxation rates R1n/R10) [1] | r1 bovine plasma [2] | r1 water [2] | Solubility [3, 10] | Inhibition Rifampicine [4] | Inhibition Rifampicine [5, 11] | Inhibition Rifampicine [6, 12] | r1 human plasma [7] | r1 water [7] | NOAEL [8] | Solubility ([3]; pH 7.4) | excreted into the bile [9] | Inhibition Rifampicine [5] | Inhibition Rifampicine [6] | secreted into the bile [9]
O=C([O-])CN1CCN(CC(=O)[O-])CCN([C@H](CO)[C@H](O)CO)CCN(CC(=O)[O-])CC1.[Gd+3] (racemic) [RC3, gadobutrol] | stable | 5.2 L/mmol/s | 3.3 L/mmol/s |  |  |  |  |  |  |  |  |  |  |  | 
COCCOCCOCCOc1ccc(C[C@H]2CN(CC(=O)[O-])CCN(CC(=O)[O-])CCN(CC(=O)O)CCN2CC(=O)[O-])cc1.[Gd+3] [Example 1, Gadolinium-2,2',2"-[(2S)-10-(carboxymethyl)-2-(4-{2-[2-(2-methoxyethoxy)-ethoxy]ethoxy}benzyl)-1,4,7,10-tetraazacyclododecane-1,4,7-triyl]triacetate] |  |  |  | > 201 mM | 90 % inhibition | 21 % inhibition | 92 % inhibition | 6.6 L/mmol/s | 5.1 L/mmol/s |  |  |  |  |  | 
CCOCCOCCOc1ccc(C[C@H]2CN(CC(=O)[O-])CCN(CC(=O)[O-])CCN(CC(=O)O)CCN2CC(=O)[O-])cc1.[Gd+3] [Example 2, Gadolinium-2,2',2"-[(2S)-10-(carboxymethyl)-2-{4-[2-(2-ethoxyethoxy)ethoxy]benzyl}-1,4,7,10-tetraazacyclododecane-1,4,7-triyl]triacetate] | 95% |  |  | > 55 mM | 93 % inhibition | 0 % inhibition | 86 % inhibition | 5.9 L/mmol/s | 4.9 L/mmol/s |  |  |  |  |  | 
COCCOCCOCCOc1ccc(C[C@@H]2CN(CC(=O)[O-])CCN(CC(=O)[O-])CCN(CC(=O)O)CCN2CC(=O)[O-])cc1.[Gd+3] [Example 3, Gadolinium-2,2',2"-[(2R)-10-(carboxymethyl)-2-(4-(2-[2-(2-methoxyethoxy)ethoxy]ethoxy}benzyl)-1,4,7,10-tetraazacyclododecane-1,4,7-triyl]triacetate] |  |  |  | > 166 mM | 83 % inhibition | 31 % inhibition | 84 % inhibition | 6.8 L/mmol/s | 5.0 L/mmol/s |  |  |  |  |  | 
CCOCCOc1ccc(C[C@H]2CN(CC(=O)[O-])CCN(CC(=O)[O-])CCN(CC(=O)O)CCN2CC(=O)[O-])cc1.[Gd+3] [Example 4] |  |  |  | > 738 mM | 94 % inhibition | 29 % inhibition | 97 % inhibition | 6.6 L/mmol/s | 4.8 L/mmol/s | 2.50 mmol Gd/kg bw |  |  |  |  | 
CCOCCOCCOCCOc1ccc(C[C@H]2CN(CC(=O)[O-])CCN(CC(=O)[O-])CCN(CC(=O)O)CCN2CC(=O)[O-])cc1.[Gd+3] [Example 5, Gadolinium-2,2',2"-[(2S)-10-(carboxymethyl)-2-(4-{2-[2-(2-ethoxyethoxy)ethoxy]ethoxy}benzyl)-1,4,7,10-tetraazacyclododecane-1,4,7-triyl]triacetate] | 96% |  |  | > 284 mM | 89 % inhibition | 41 % inhibition | 96 % inhibition | 5.7 L/mmol/s | 5.1 L/mmol/s |  |  |  |  |  | 
CCOCCOCCOc1ccc(C[C@H]2CN(CC(=O)[O-])CCN(CC(=O)[O-])CCN(CC(=O)O)CCN2CC(=O)[O-])nc1.[Gd+3] [Example 6, Gadolinium 2,2',2"-[(2S)-10-(carboxymethyl)-2-({5-[2-(2-ethoxyethoxy)ethoxy]pyridin-2-yl}methyl)-1,4,7,10-tetraazacyclododecane-1,4,7-triyl]triacetate] |  |  |  |  | 91 % inhibition | 2 % inhibition | 65 % inhibition | 5.9 L/mmol/s | 5.3 L/mmol/s |  |  |  |  |  | 
CCOc1ccc(CC(CN(CCN(CC(=O)[O-])CC(=O)[O-])CC(=O)[O-])N(CC(=O)[O-])CC(=O)[O-])cc1.[Gd+3].[Na+].[Na+] (stereo not shown) [RC1, gadoxetate disodium, reference compound] |  | 6.9 L/mmol/s | 4.7 L/mmol/s |  | 97 % inhibition |  |  |  |  |  | > 250 mM | up to 50 % of the administered dose | 81 % inhibition | 99 % inhibition | 
O=C([O-])CN(CCN(CC(=O)[O-])CC(=O)[O-])CCN(CC(=O)[O-])C(COCc1ccccc1)C(=O)[O-].[Gd+3].[H+].[H+] (stereo not shown) [RC2, gadobenic acid] |  | 6.3 L/mmol/s | 4.0 L/mmol/s |  | 79 % inhibition |  |  |  |  |  |  |  |  |  | 3-to-5%
